Several values for one entry are separate records, joined by “and”; a condition that tells them apart may be missing. Equal values may be shown once. Read-outs that look alike come from different tables or passages of the source.

The term IC50 denotes the concentration that gives 50% inhibition. As a reminder, the EC50 is the concentration at which the effect is half-maximal.

In data set [1] the target is T1, recombinant TAO (ΔMTS rTAO) (Trypanosoma brucei brucei, UniProt Q26710).
T1 construct: […]; SUMO (Small Ubiquitin-related Modifier) fusion from the expression system; made in house
The following applies: ref earlier reports; cited from earlier work.

Data set [2] has as its target T1, recombinant TAO (ΔMTS rTAO). Briefly: Inhibition of ubiquinol oxidase activity of purified recombinant TAO. Format: biochemical, T. brucei. The procedure:
This physiologically relevant rTAO enzyme was used throughout this work and in this experiment to study the inhibitory activity of 1.
As previously described, the Ubiquinol oxidase activity measurement was carried out using recombinant TAO lacking the mitochondrial targeting signal (ΔMTS). […] The reaction was carried out in a 1 cm cuvette for 2 min using a V-630 Jasco UV–vis spectrophotometer (Jasco Corporation, Tokyo, Japan). Briefly, the procedure involves preincubating 250 ng of the enzyme for 2 min in a 50 mM Tris-HCl (pH 7.3) buffer containing the detergent octaethylene glycol monododecylether (0.05% (w/v)) in a total reaction volume of 1 mL at 25 °C. […] For the inhibition reaction, 250 ng of the enzyme was preincubated with varying inhibitor concentrations for 2 min using the same buffer before the substrate was added. […] This was achieved using the same protocol but without TAO. […] The residual activities were plotted against the corresponding inhibitor concentration in a GraphPad Prism-9 software to obtain the IC50 value.

Data set [3] shares this target. The conditions noted are these: ref reported earlier, cited from earlier work.
Data set [4] relates to STIB900 mouse model. On the set-up: method as in previous studies. The conditions noted are these: 24 h after the last treatment, 4 × 10 mg/kg ip; ref previous studies; cited from earlier work.
Details of data set [5]: method as in previous studies. The following applies: ref previous studies, cited from earlier work.
Data set [6] concerns T. b. brucei WT (s427) trypomastigotes. Briefly: microbe, parasite or virus in culture. The following applies: Trypanosoma brucei. Type of data set: cell-based. The procedure: (§1) Other Trypanosoma species used in this study include T. evansi AntTat 3/3 (Wild-type); and T. equiperdum BoTat 1 (Bordeaux trypanozoon antigenic type 1) P (wild-type). All the trypanosomes were used only as bloodstream trypomastigotes and cultured in the standard Hirumi’s Modified Iscove’s medium #9 (HMI-9), supplemented with 10% heat-inactivated Fetal Bovine Serum (FBS), 14 μL/L β-mercaptoethanol, and 3.0 g sodium hydrogen carbonate per liter of medium (pH 7.4). Trypanosomes were cultured in vented flasks at 37 °C in a 5% CO2 atmosphere.
(§2) Briefly, this protocol involves preparing a 96-well cell culture plate with a 100 μL serially diluted test compound (200 μM top concentration) in HMI-9 + 10% FBS (24 wells per control drug or test compound, with the 24th well serving as drug-free). This is followed by adjusting the cell density of mid-log-phase trypanosome cultures to the required concentration of 2 × 10^5 cells/mL (2 × 10^4 cells/well). […] All incubations were carried out at 37 °C with 5% CO2. […] EC50 values were calculated using GraphPad Prism 9.0 software via nonlinear regression with an equation for a sigmoidal dose–response curve with variable slope (GraphPad Software Inc., San Diego, CA, USA).

Data set [7] concerns T. evansi WT. Briefly: Resazurin-based drug sensitivity assay, T. evansi WT. Type of data set: cell-based. As to the method:
as §1, §2
(Resazurin is reduced to fluorescent resorufin, in cell work by metabolically active cells.)

Data set [8] deals with T. congolense WT. Briefly: Drug sensitivity assay, T. congolense WT bloodstream forms. Format: cell-based. The conditions noted are these: Trypanosoma congolense. The procedure: The susceptibilities of trypanosomes to compound 1 were determined as previously described using the resazurin (Alamar Blue) assay. Briefly, this protocol involves preparing a 96-well cell culture plate with a 100 μL serially diluted test compound (200 μM top concentration) in HMI-9 + 10% FBS (24 wells per control drug or test compound, with the 24th well serving as drug-free). This is followed by adjusting the cell density of mid-log-phase trypanosome cultures to the required concentration of 2 × 10^5 cells/mL (2 × 10^4 cells/well). Then, 100 μL of the adjusted cell density/culture was added to all 24 wells in the plate, then incubating trypanosomes and test compound for 48 h followed by the addition of 20 μL filter-sterilized resazurin solution prepared by adding 25 mg resazurin sodium salt to 200 mL filter-sterilized PBS. This was followed by a further 24 h of incubation. All incubations were carried out at 37 °C with 5% CO2. […] Fluorescence was measured in the 96-well plates with a FLUOstar Optima (BMG Labtech, Durham, NC, USA) at wavelengths of 544 nm for excitation, 590 for emission, and a gain of 1250. EC50 values were calculated using GraphPad Prism 9.0 software via nonlinear regression with an equation for a sigmoidal dose–response curve with variable slope (GraphPad Software Inc., San Diego, CA, USA).

Data set [9] relates to T. equiperdum WT. Briefly: Resazurin-based drug sensitivity assay, T. equiperdum WT. Format: cell-based. The following applies: Trypanosoma equiperdum. As to the method: as §1, §2
Data set [10] has as its system T. brucei B48. Briefly: microbe, parasite or virus in culture. The conditions noted are these: Trypanosoma brucei, read-out: T. brucei B48 EC50. Type of data set: cell-based, T. b. brucei. The procedure:
as §1, §2

The subject of data set [11] is T. brucei aqp1-3 null. Briefly: microbe, parasite or virus in culture. Type of data set: cell-based, T. b. brucei. The following applies: Trypanosoma brucei, read-out: aqp1-3 null EC50. As to the method:
as §1, §2

Data set [12] deals with T. b. brucei SUR10. Briefly: microbe, parasite or virus in culture. Type of data set: cell-based. The conditions noted are these: Trypanosoma brucei, read-out: SUR10 EC50.
Where [13] appears, read: read-out: IC50 against rTAO, activity against TAO reported earlier.
The mark [14] stands for this setting: read-out: rTAO IC50 (supplementary csv, compounds 4, 6, 8-10, 12), IC50 (µM).

T1 sequence (Q26710 26-329, stated change not applied): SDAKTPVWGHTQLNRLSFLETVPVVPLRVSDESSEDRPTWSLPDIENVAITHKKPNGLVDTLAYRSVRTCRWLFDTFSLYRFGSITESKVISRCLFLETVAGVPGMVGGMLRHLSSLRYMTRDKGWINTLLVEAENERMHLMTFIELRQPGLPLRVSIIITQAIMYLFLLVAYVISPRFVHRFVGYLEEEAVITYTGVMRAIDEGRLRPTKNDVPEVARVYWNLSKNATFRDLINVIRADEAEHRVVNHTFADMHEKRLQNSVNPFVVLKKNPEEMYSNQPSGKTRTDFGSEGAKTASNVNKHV

With `C/C(=C\Cc1c(O)c(Cl)c(C)c(C=O)c1O)CC/C=C(\C)[C@@H]1CC(=O)C(C)(C)O1` [AF, Ascofuranone, reference compound], the “Type of inhibition of TAO” value in [1] is on record as “competitive”.
`Cc1cc(O)cc(O)c1C(=O)OCCCCCCCCCCCCCC[P+](c1ccccc1)(c1ccccc1)c1ccccn1` [Compound 2, {14-[(2,4-Dihydroxy-6-methylbenzoyl)-oxy]-tetradecyl}-diphenyl(pyridin-2-yl)-Phosphonium Bromide]: the half-maximal inhibitory concentration (IC50) in data set [2] was 1600 nM.
As for `Cc1cc(O)ccc1C(=O)CCCCCCCCCCCCCCC[P+](c1ccccc1)(c1ccccc1)c1ccccn1.[Br-]` [Compound 3], the IC50 in data set [2] was above 5000 nM. For the same compound, the “Inhibition of TAO at the highest concentration tested” value in [2] (5 μM) was “did not inhibit”.
For the compound `Cc1cc(O)ccc1C(=O)OCCCCCCCCCCCCCC[P+](c1ccccc1)(c1ccccc1)c1ccccc1` [Compound 4], the half-inhibitory concentration (IC50) in data set [3] (setting [13]) was 0.081 µM and ~0.08 µM.
For the compound `Cc1cc(O)ccc1C(=O)OCCCCCCCCCCCCCC[n+]1cccc2ccccc21.[Br-]` [Compound 6], the “Type of inhibition of TAO” value in data set [1] was “competitive”. For the same compound, the IC50 in data set [3] (setting [14]) was 0.03 ± 0.005 µM.
Take `Cc1c(Cl)c(O)c(Cl)c(O)c1C(=O)OCCCCCCCCCCCCCC[P+](c1ccccc1)(c1ccccc1)c1ccccc1` [Compound 7, {14-[(3,5-Dichloro-2,4-dihydroxy-6-methylbenzoyl)-oxy]-tetradecyl}-Triphenylphosphonium Bromide]: the IC50 in [2] came to 160 nM.
On to `Cc1cc(O)cc(O)c1C(=O)OCCCCCCCCCCCCCC[P+](c1ccccc1)(c1ccccc1)c1ccccc1.[Br-]` [Compound 8], for which, in data set [4], the Reduction of parasitemia is 95%. Also, in data set [1], the “Type of inhibition of TAO” value is given as “competitive”. Also, in data set [5] (S9 fraction and cofactor UDPGA), the “Half-life (phase 2 metabolism)” value is “approximately 2 h”. In addition, the IC50 in [3] (setting [13]) is ~0.08 µM and 0.088 µM.
With `Cc1cc(O)cc(O)c1C(=O)OCCCCCCCCCCCCCC[n+]1cccc2ccccc21.[Br-]` [Compound 9], the Reduction of parasitemia in data set [4] was 95%. Also, the “Phase 2 metabolism” value in data set [5] was “lack of phase 2 metabolism”. Besides, in [3] (setting [14]), the IC50 is 0.104 ± 0.011 µM.
For `Cc1cc[n+](CCCCCCCCCCCCCCOC(=O)c2c(C)cc(O)cc2O)cc1` [Compound 10], in data set [3] (setting [14]), the IC50 is above 5 µM.
`N=C(N)c1ccc(/N=N/Nc2ccc(C(=N)N)cc2)cc1` [Dim., Diminazene aceturate]: the EC50 in data set [6] (read-out: T. b. brucei WT (+5 mM glycerol) EC50) was 81 ± 13 nM; in data set [6] (read-out: T. b. brucei WT (no glycerol) EC50) it was 65 ± 21 nM; in [7], 51.4 ± 12 nM; in [8], 252 ± 18 nM; in data set [9], 33.2 ± 10 nM; in data set [10], 1220 ± 20 nM.
On to `N=C(N)c1ccc(OCCCCCOc2ccc(C(=N)N)cc2)cc1` [Pent., Pentamidine isethionate], for which the EC50 in data set [6] (read-out: T. b. brucei WT (+5 mM glycerol) EC50, incubated in the presence of 5 mM glycerol) was 6.2 ± 1.7 nM; in data set [6] (s427, no glycerol, n ≥ 4, read-out: T. b. brucei WT (no glycerol) EC50), 4.2 ± 0.8 nM; in data set [7] it was 5.1 ± 2.1 nM; in data set [9] it was 8.1 ± 1.1 nM; in data set [10], 1020 ± 200 nM; in data set [11], 51.4 ± 11.8 nM.
On to `O=C(NO)c1ccccc1O` [SHAM, Salicylhydroxamic acid], for which the EC50 in data set [11] is 6880 ± 110 nM.
In the case of `Cc1ccc(C(=O)Nc2ccc(S(=O)(=O)O)c3cc(S(=O)(=O)O)cc(S(=O)(=O)O)c23)cc1NC(=O)c1cccc(NC(=O)Nc2cccc(C(=O)Nc3cc(C(=O)Nc4ccc(S(=O)(=O)O)c5cc(S(=O)(=O)O)cc(S(=O)(=O)O)c45)ccc3C)c2)c1` [Suramin, reference compound], in data set [12], the EC50 stood at 190 ± 20 nM.

The values above are taken from article PMC12406258, “Uncovering the Unusual Inhibition Mechanism of a Trypanosome Alternative Oxidase Inhibitor Displaying Broad-Spectrum Activity against African Animal Trypanosomes” (Journal of Medicinal Chemistry, 2025).
